Data reported in patent publication US20240166637A1, “COMPOUNDS AND METHODS FOR TREATING MALARIA” (Microbiotix, Inc., priority 2021, published 2024).
Converted amounts (≈) assume the structure as drawn. Read-outs that look alike come from different tables or passages of the source.

Key:
PSAC = assay: Transport inhibition assay: PSAC block by osmotic lysis of infected cells in sorbitol (transmittance); assay type: cell-based, P. falciparum; conditions: for PSAC K0.5: Table 6
Experimental: Transport experiments were conducted to examine the affinity of the inhibitor compounds for PSAC. Inhibitor affinity for blocking PSAC was determined using a quantitative transmittance assay which is based on the osmotic lysis of infected cells with sorbitol (Desai, S., and A. Pillai, U.S. Pat. No. 8,618,090, supra (2013); Dondorp et al., supra (2009); Hooft van Huijsduijnen, R., and T. N. Wells, supra (2018)). Malaria parasite cultures were enriched at the trophozoite stage via the Percoll-sorbitol method (Pillai et al., Mol. Pharmacol., 82:1104-1114 (2012); Pillai et al., Mol. Pharmacol., 77:724-733 (2010); Wagner et al., Biophys. J., 84:116-123 (2003)), washed, and resuspended at 37° C. and 0.15% hematocrit in 280 mM sorbitol, 20 mM Na-HEPES, 0.1 mg/ml bovine serum albumin, pH 7.4, with the indicated concentrations of inhibitor compounds. Osmotic lysis, resulting from PSAC-mediated sorbitol uptake, was continuously tracked with transmittance measurements through the cell suspension (700-nm wavelength, DU640 spectrophotometer with Peltier temperature control; Beckman Coulter, Fullerton, CA).
Inhibitor dose-response relationships (K0.5 values) were calculated from the times required to reach a fractional lysis threshold. K0.5 estimates obtained with the osmotic lysis assay match those obtained using cell-attached and whole-cell patch-clamp assays (Alkhalil et al., Blood, 104:4279-4286 (2004); Dondorp et al., N. Engl. J. Med., 361:455-467 (2009)), confirming a quantitatively robust and valid assay.

P. falciparum = assay: In vitro parasite growth inhibition in PGIM (SYBR Green I); assay type: cell-based
Experimental: P. falciparum laboratory lines were propagated at the asexual stage with standard methods, in RPMI 1640 medium supplemented with 25 mM HEPES, 31 mM NaHCO3, 0.37 mM hypoxanthine, 10 μg/ml gentamicin, and 10% pooled human serum. Nutrient deprivation experiments utilized standard PSAC Growth Inhibition Medium (PGIM) but with reduced concentrations of individual ingredients. Human serum was exhaustively dialyzed against distilled water before addition to those media. The PGIM contained reduced concentrations of isoleucine (11.4 μM), glutamine (102 μM), and hypoxanthine (3.01 μM) and was supplemented with the dialyzed human serum. Growth inhibition experiments (Burrows et al., Parasitology, 141:128-139 (2013)) were quantified by using a SYBR Green I-based fluorescence assay for parasite nucleic acid in 96-well microplates, as described previously (Dondorp et al., supra (2009)). Ring-stage synchronized cultures were seeded at 1% parasitemia and 2% hematocrit levels in standard medium or PGIM and were maintained for 72 hr at 37° C. in 5% O2/5% CO2 in nitrogen, without medium changes. Cultures were then lysed in 20 mM Tris, 10 mM EDTA, 0.016% saponin, 1.6% Triton X-100, pH 7.5, with SYBR Green I nucleic acid gel stain (Invitrogen, Carlsbad, CA) at 5000-fold dilution.
After a […] incubation, parasite DNA contents were quantified through fluorescence measurements (excitation, 485 nm; emission, 528 nm). Results were presented as IC50 values, defined as the concentration of inhibitor which decreases P. falciparum (Pf) DNA content by 50% (IC50 PGIM).

[1] = Mammalian cytotoxicity, HeLa cells, 72 hr, MTS; assay type: cell-based, human; conditions: human, HeLa cells; for CC50 at 72 h: 3 days
Experimental: (§1) Cytotoxicity of the inhibitor compounds was quantified using human HeLa cells (CLL-2; American Type Culture Collection, Manassas, VA) seeded at 4000 cells/well in 96-well plates. Cultures were incubated with individual inhibitor compounds for 72 hr at 37° C. in minimal essential medium (Invitrogen) supplemented with 10% fetal calf serum.

human HeLa cells = assay: Mammalian cytotoxicity, HeLa cells, 72 hr, MTS; assay type: cell-based
Experimental: as §1

[2] = Solubility by nephelometric method; assay type: physicochemical
Experimental: The solubility of the inhibitor compounds was determined by the nephelometric method (Bevan, C., and R. Lloyd, supra (2000)). A high-throughput screening method for the determination of aqueous drug solubility using laser nephelometry in microtiter plates. The compounds were serially diluted in DMSO and then added to water. […] Additionally, to confirm the nephelometry results, compounds were stirred with a test vehicle (deionized water, PBS, or D5W) at 20° C. for 4 hours. Additional compound was added if complete dissolution was obtained. The mixture was then filtered and the filtrate assayed by HPLC to quantify the amount of compound in solution (Solubility).

[3] = Microsome stability (MLMS); assay type: in vitro ADME, mouse; conditions: murine liver microsomes; for MLMS % consumed: after 30 min.
Experimental: The microsome and serum stability assays measure the stability of the inhibitor compounds when exposed to the liver and to serum in vivo. For microsomal stability measurements, inhibitor compounds were incubated with mouse microsomal proteins in buffer with NADPH (Bevan, C. and R. Lloyd, Anal. Chem., 72:1781-1787 (2000)) and the resulting samples were analyzed by LC/MS to quantitate the remaining parent. The data are calculated as percent of parent remaining.

Serum stability (MSS) = assay type: in vitro ADME; conditions: mouse serum exposure; for MSS % consumed: after 60 minutes
Description: The microsome and serum stability assays measure the stability of the inhibitor compounds when exposed to the liver and to serum in vivo. For serum stability, inhibitor compounds were exposed to 55% mouse serum and the resulting samples analyzed by LC/MS to quantitate the remaining parent. […]

CYP3A4 = CYP3A4 (Homo sapiens, UniProt P08684); assay: Cytochrome P450 inhibition, fluorogenic substrate assay; assay type: in vitro ADME
Description: To measure Cytochrome P450 inhibition, a fluorogenic substrate assay was used to measure inhibitor compound interference with enzymes that metabolize drugs in vivo (Houston, J., Biochem. Pharmacol., 47:1469-1479 (1994)).

Caco-2 permeability = assay type: in vitro ADME; conditions: human, Caco-2; read-out: Papp, Caco-2 cell monolayer
Experimental: (§2) The Caco-2 assay is an indicator of the potential oral bioavailability of the inhibitor compound. Caco-2 cells were applied to wells of a collagen-coated BioCoat Cell Environment (BD Biosciences) plate as described (Duraisingh, M., and A. Cowman, Acta Trop., 94:181-190 (2005)). The test agent was added to the apical (A) side and the amount of permeation was determined on the basolateral (B) side by LC/MS/MS analysis. The amount of material on the A and B sides were used to calculate a Papp value (Caco-2 Papp).

[4] = Protein binding in mouse serum by equilibrium dialysis; assay type: in vitro ADME
Caco-2 cells = assay: Caco-2 permeability; assay type: in vitro ADME; conditions: apical to basolateral
Experimental: as §2

[5] = mouse, in vivo
Experimental: (§3) Tolerability. […] Pharmacokinetics (PK). […] PK parameters were calculated using the WinNonLin program. Efficacy.

[6] = tested on: P. falciparum Pf3D70087/N9; assay: Murine efficacy, humanized NSG mouse model infected with P. falciparum; assay type: in vivo
Experimental: as §3
In a second study, NSG mice were treated with either 25 mg/kg or 50 mg/kg of MBX 4055 either once or twice daily for 4 days by the oral route. […] Percent parasitemia was measured daily for 5 days as were the plasma levels of MBX 3318 and 4055.
Humanized NSG mice infected with P. falciparum were treated with 100 mg/kg of MBX 3318 twice daily for 4 days by the PO route. Control mice were treated with vehicle alone (10% DMSO, 80% PEG400, 1% Polysorbate 80). […] During the assay, blood samples were taken from mice treated with MBX 3318 to measure the levels of compound (FIG. 2B).
The murine model was also employed against MBX 4055. Humanized NSG mice infected with P. falciparum were treated with 25 or 50 mg/kg of MBX 4055 twice daily or 50 mg/kg once daily, for 4 days by the PO route. […] Unfortunately, the remaining mice that were dosed twice daily, including the vehicle-only mouse died within 2-5 days due to the apparent toxicity of the Labrasol-containing vehicle. During the assay, blood samples were taken from mice treated with MBX 4055 to measure the levels of compound (FIG. 3B).

CD-1 mice = assay: Murine tolerability; conditions: not dose-related, considered formulation-related
Experimental: Tolerability. The test compounds were dissolved at concentrations of 1 to 10 mg/mL in various formulations (5% DMSO, 5% cremophor, 80% PEG-300 or 10% DMSO, 80% PEG-400, 1% Polysorbate 80). Male CD-1 mice were dosed with 4 dose levels of each test compound (vehicle control plus 3 dose levels ranging from 10-200 mg/kg as described in Table 8) of test compound by the intravenous (IV), intraperitoneal (IP) or oral (PO) route. Clinical observations described in Table 8 were made at various time points out to 24 hours after which mice were humanely euthanized.
Animals were monitored for 24 hours for signs of toxicity.

[7] = mouse serum, equilibrium dialysis

CYP3A4, sequence (P08684 whole entry, species assumed): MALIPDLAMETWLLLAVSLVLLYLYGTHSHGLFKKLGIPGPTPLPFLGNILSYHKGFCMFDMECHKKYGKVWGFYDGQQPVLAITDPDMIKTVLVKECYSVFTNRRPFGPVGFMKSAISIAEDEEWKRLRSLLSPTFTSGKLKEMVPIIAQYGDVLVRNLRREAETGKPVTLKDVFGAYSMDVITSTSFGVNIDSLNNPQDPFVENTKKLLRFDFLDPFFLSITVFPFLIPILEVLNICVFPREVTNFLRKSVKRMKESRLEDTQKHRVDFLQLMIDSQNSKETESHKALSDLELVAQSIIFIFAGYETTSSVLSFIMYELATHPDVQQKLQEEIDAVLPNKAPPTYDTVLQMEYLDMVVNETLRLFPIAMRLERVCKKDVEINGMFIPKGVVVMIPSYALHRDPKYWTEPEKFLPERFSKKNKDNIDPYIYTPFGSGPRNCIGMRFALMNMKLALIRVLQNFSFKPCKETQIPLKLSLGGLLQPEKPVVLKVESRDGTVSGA

## N#Cc1cccnc1N1CCN(S(=O)(=O)c2ccc(-c3ccc(=O)[nH]n3)s2)CC1 [MBX-2997, 2-(4-((5-(6-oxo-1,6-dihydropyridazin-3-yl)thiophen-2-yl)sulfonyl)piperazin-1-yl)nicotinonitrile]
PSAC
  PSAC K0.5: 0.007 µM
P. falciparum; Plasmodium falciparum, 72 h, read-out: IC50 PGIM
  IC50: 38 nM
[1]; Table 6, read-out: HeLa CC50
  CC50 at 72 h: > 200000 nM
Human HeLa cells; HeLa CC50 / PSAC K0.5
  SI CC50/PSAC K0.5: >28,500
[2]; water, kinetic from dmso stock, solubility limit in H2O, read-out: Solubility
  solubility: 25 µM (≈ 10.7 µg/mL)

## Cc1ccc(C)c(N2CCN(S(=O)(=O)c3ccc(-c4ccc(=O)[nH]n4)s3)CC2)c1 [ISG-21, reference compound]
PSAC; Table 3
  K0.5, activity in the PSAC assay: 0.003 µM
PSAC
  PSAC K0.5: 0.003 µM
P. falciparum; Plasmodium falciparum, Pf growth inhibition in PGIM, 72 hr, read-out: IC50 PGIM
  IC50: 2 nM
P. falciparum; Plasmodium falciparum, Table 3, read-out: IC50, Pf growth inhibition in PGIM
  IC50: 2 nM
[1]; Table 3, read-out: CC50, cytotoxicity against HeLa cells
  CC50 at 72 h: 86000 nM
[1]; HeLa CC50 divided by growth inhibition IC50
  selectivity ratio at 72 h: 37000
Human HeLa cells; HeLa CC50 / PSAC K0.5
  SI CC50/PSAC K0.5: 28,700
[3]; % consumed after 30 min., Table 4
  MLMS (% cons): 17 % cons
[3]
  MLMS % consumed: 17 % consumed
Serum stability (MSS); % consumed after 60 minutes, Table 4
  MSS (% cons): 0 % cons
Serum stability (MSS)
  MSS % consumed: 0 % consumed
CYP3A4
  Cyp 3A4 % inhib. at 5 μM: 0 % inhib.
CYP3A4; human, Table 4, read-out: Cyp 3A4 % Inhib
  inhibition at 5 µM: 0%
Caco-2 permeability
  Papp A→B: < 0.5 ×10⁻⁶ cm/s
[2]; water, kinetic from dmso stock, H2O, Table 4, read-out: Sol., solubility limit in H2O
  solubility: 25 µM (≈ 10.8 µg/mL)
[4]
  binding by serum proteins: highly bound by serum proteins
[4]; [7]
  Mouse PB % bound: 100 % bound
[4]; mouse serum, equilibrium dialysis, Table 4, read-out: PPB, percent protein bound
  fraction unbound: 0.001

## Cc1nccnc1N1CCN(S(=O)(=O)c2ccc(-c3ccc(=O)[nH]n3)s2)CC1 [MBX-4055]
PSAC
  PSAC K0.5: 0.021 µM
P. falciparum; Pf growth inhibition in PGIM, 72 hr, read-out: IC50 PGIM
  IC50: 42 nM
Human HeLa cells; 3 days, Table 6, read-out: HeLa CC50
  CC50: > 200000 nM
Human HeLa cells; HeLa CC50 / PSAC K0.5
  SI CC50/PSAC K0.5: >9,524
[3]
  MLMS % consumed: 47 % consumed
Serum stability (MSS)
  MSS % consumed: 5 % consumed
CYP3A4
  Cyp 3A4 % inhib. at 5 μM: 0 % inhib.
Caco-2 cells
  Caco-2 Papp: 7.8 ×10⁻⁶ cm/s
[2]; solubility limit in H2O, read-out: Solubility
  solubility: 25 µM (≈ 10.5 µg/mL)
[4]; [7]
  Mouse PB % bound: 94 % bound
[5]
  % F (oral bioavailability): 66%
  half-lives (FIG. 1, clearance rates): favorable half-lives
[5]; iv, 10 mg/kg
  AUClast: 34,275 hr*ng/mL
  Clearance: 6.53 mL/min/kg
  Half-life: 1.39 h
  Mean residence time: 1.35 h
  VD: 0.786 L/kg
[5]; po
  increase in normalized exposure relative to MBX 3318: > 30 fold
[5]; po, 30 mg/kg
  AUClast: 67,501 hr*ng/mL
  Cmax: 11,733 ng/mL
  Half-life: 2.27 h
  Normalized AUC: 22,500
  Tmax: 1 h
[6]; humanized NSG mouse, 50 mg/kg once daily for 4 days, PO
  reduction of parasite growth with respect to control mice: over 90%
[6]; infected NSG mice treated with MBX 4055 PO, FIG. 3B
  blood levels of compound compared with IC50 in vitro: well above the IC50 in vitro
CD-1 mice
  signs of toxicity, PO dosing: some slight lethargy

## N#Cc1ccncc1N1CCN(C(=O)c2ccc(C(=O)N3CCCC3)s2)CC1 [MBX-4075]
PSAC
  PSAC K0.5: 1.08 µM
Human HeLa cells
  CC50: > 200000 nM
  SI CC50/PSAC K0.5: >185
